For assay [1], the species on record is Homo sapiens. The assay is described as follows: Induction of neuronal differentiation in human TERA2.cl.SP12 cells assessed as small and scattered colonies of TUJ-1 positive cells at 10 uM measured measured after 2 weeks by immunofluorescence method. The assay is classed as functional, cell-based.
Assay [2] concerns SH-SY5Y. Briefly: Induction of neuronal differentiation in human SH-SY5Y cells assessed as increase in RARbeta mRNA expression at 0.001 to 1 uM measured after 8 hrs by RT-PCR analysis. The assay is classed as functional, cell-based.

The structures appear in SMILES notation. Active and inactive are the calls of the source. The calls are words filed in the database; no cut-off is given here.

As to `CCOC(=O)c1ccc(-c2nc(-c3ccccc3)c(C)s2)cc1`, the outcome in assay [1] was Active. Take `CCOCCOc1nc(-c2ccc(C(=O)O)cc2)sc1C`: the outcome in assay [1] and in assay [2] was Active. On to `CC1=C(/C=C/C(C)=C/C=C/C(C)=C/C(=O)O)C(C)(C)CCC1`, for which the outcome in assay [2] was Active.

For the origin of these results see ChEMBL document CHEMBL4219070, “Probing biological activity through structural modelling of ligand-receptor interactions of 2,4-disubstituted thiazole retinoids” (Bioorg Med Chem, 2018).
